In patent US20250019385A1, “SPIROCYCLIC ANNULATED 2-AMINO-3-CYANO THIOPHENES AND DERIVATIVES FOR THE TREATMENT OF CANCER” (Boehringer Ingelheim International GmbH, priority 2023, published 2025):

Molecular target: KRAS (G12D)::CRAF protein::protein interaction (Homo sapiens (Human), UniProt P01116, G12D)
Test: KRAS TR-FRET assay (KRAS G12D::CRAF, GTP)
Type: binding
Settings: not given
Procedure: (§1) This assay measures the inhibitory effect of compounds on KRAS::CRAF protein::protein interactions in the presence of GTP using Time-resolved fluorescence energy transfer (TR-FRET).
(§2) The following wildtype or mutant alleles of KRAS and CRAF protein have been used at the given concentrations:
KRAS (G12D) 1-169, N-terminal 6His-tag, C-terminal avi-tag (Xtal BioStructures, Inc.); final assay concentration 15 nM,
(§3) CRAF Ras binding domain, GST-tag, TEV cleavage site (Boehringer Ingelheim in house protein prep); final assay concentration 15 nM.
(§4) Test compounds dissolved in DMSO were dispensed onto assay plates (Proxiplate 384 PLUS, white, PerkinElmer; 6008289) using an Access Labcyte Workstation with the Labcyte Echo 55x. For the chosen highest assay concentration of 100 μM, 150 nl of compound solution was transferred from a 10 mM DMSO compound stock solution. A series of eleven fivefold dilutions per compound was transferred to the assay plate, compound dilutions were tested in duplicates. DMSO was added as backfill to a total volume of 150 nl.
(§5) The assay runs on a fully automated robotic system. To 150 nl of compound dilution 15 μl of a mix including the respective KRAS allele, CRAF (e.g. KRAS (G12D)::CRAF; final assay concentrations see above), GTP nucleotide (Sigma G8877; final assay concentration 10 μM), Lance Eu—W1024 labeled Streptavidin (PerkinElmer, Cat No AD0063; final assay concentration 1.5 nM) and Anti-GST surelight APC (PerkinElmer, Cat No AD0059G; final assay concentration 30 nM) in assay buffer (1×PBS, 0.1% BSA, 0.05% Tween 20) are added into columns 1-23 and 15 μL of the solution without the respective KRAS allele were added to row 24.
(§6) Plates are kept at room temperature in a darkened incubator. After 60 minutes incubation time the signal is measured in a PerkinElmer Envision HTS Multilabel Reader using the TR-FRET LANCE Ultra specs from PerkinElmer.
(§7) Each plate contains 16 wells of a negative control (diluted DMSO instead of test compound; w respective KRAS allele; column 23) and 16 wells of a positive control (diluted DMSO instead of test compound; w/o respective KRAS allele; column 24).
(§8) IC50 values were calculated and analyzed with Boehringer Ingelheim's MEGALAB 50 application using a 4 parametric logistic model.
(§9) Tables of example compounds disclosed herein contain IC50 values determined using the above assays (see Table 44).

Chain of KRAS (G12D)::CRAF protein::protein interaction (P01116 other isoform, or with tags, fused parts or gaps G12D): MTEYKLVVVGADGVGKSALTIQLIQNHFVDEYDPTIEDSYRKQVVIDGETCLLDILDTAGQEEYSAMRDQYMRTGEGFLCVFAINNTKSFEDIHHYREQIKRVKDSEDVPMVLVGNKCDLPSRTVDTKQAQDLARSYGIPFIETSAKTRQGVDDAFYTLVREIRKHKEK

In order of rising IC50:
1. C[C@H](Oc1nc(-c2noc3c2CCC[C@@]32CCCc3sc(N)c(C#N)c32)nc2c1CNC[C@]21CCOC1)[C@@H]1CCCN1C [II-15]  18 nM
2. C[C@H](Oc1nc(-c2noc3c2CCC[C@@]32CCCc3sc(N)c(C#N)c32)nc2c1n(C)c(=O)n2[C@@H]1CCOC1)[C@@H]1CCCN1C [II-2]  32 nM
3. C[C@H](Oc1nc(-c2onc3c2CCC[C@@]32CCCc3sc(N)c(C#N)c32)nc2c1ncn2[C@@H]1CCOC1)[C@@H]1CCCN1C [I-38]  45 nM
4. CO[C@H]1CCN(C)[C@@H]1[C@H](C)Oc1nc(-c2onc3c2CCC[C@@]32CCCc3sc(N)c(C#N)c32)nc2c1n(C)c(=O)n2[C@@H]1CCOC1 [I-23]  52 nM
5. C[C@H](Oc1nc(-c2onc3c2CCC[C@@]32CCCc3sc(N)c(C#N)c32)nc2c1n(C)c(=O)n2[C@@H]1CCOC1)C12CCCN1CCC2 [I-25]  53 nM
6. C[C@H](Oc1nc(-c2onc3c2CCC[C@@]32CCCc3sc(N)c(C#N)c32)nc2c1n(C)c(=O)n2[C@@H]1CCOC1)[C@@H]1CC[C@H](C)N1C [I-26]  58 nM
7. Cc1cc2c(O[C@@H](C)[C@@H]3CCCN3C)nc(-c3onc4c3CCC[C@@]43CCCc4sc(N)c(C#N)c43)nc2n1[C@@H]1CCOC1 [I-40]  182 nM
8. C[C@H](Oc1nc(-c2onc3c2CCC[C@@]32CCCc3sc(N)c(C#N)c32)nc2c1n(C)c(=O)n2[C@H]1CCCOC1)[C@@H]1CCCN1C [I-11]  460 nM

Molecular target: KRAS (G12V)::CRAF protein::protein interaction (Homo sapiens (Human), UniProt P01116, C118S/G12V)
Test: KRAS TR-FRET assay (KRAS G12V::CRAF, GTP)
Type: binding
Settings: not given
Procedure: as §1, §2
KRAS (G12V) 1-169, C118S, N-terminal 6His-tag, C-terminal avi-tag (Boehringer Ingelheim in house protein prep); final assay concentration 15 nM.
as §3, §4, §5, §6, §7, §8, §9

Chain of KRAS (G12V)::CRAF protein::protein interaction (P01116 other isoform, or with tags, fused parts or gaps G12V/C118S): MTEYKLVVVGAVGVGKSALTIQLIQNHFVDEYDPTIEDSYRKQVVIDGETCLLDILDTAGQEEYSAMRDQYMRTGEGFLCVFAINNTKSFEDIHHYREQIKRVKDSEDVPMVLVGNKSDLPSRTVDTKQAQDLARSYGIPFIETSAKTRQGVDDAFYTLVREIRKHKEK

In order of rising IC50:
1. C[C@H](Oc1nc(-c2noc3c2CCC[C@@]32CCCc3sc(N)c(C#N)c32)nc2c1CNC[C@]21CCOC1)[C@@H]1CCCN1C [II-15]  17 nM
2. C[C@H](Oc1nc(-c2onc3c2CCC[C@@]32CCCc3sc(N)c(C#N)c32)nc2c1n(C)c(=O)n2[C@@H]1CCOC1)[C@@H]1CC[C@H](C)N1C [I-26]  22 nM
3. C[C@H](Oc1nc(-c2noc3c2CCC[C@@]32CCCc3sc(N)c(C#N)c32)nc2c1n(C)c(=O)n2[C@@H]1CCOC1)[C@@H]1CCCN1C [II-2]  24 nM
4. CO[C@H]1CCN(C)[C@@H]1[C@H](C)Oc1nc(-c2onc3c2CCC[C@@]32CCCc3sc(N)c(C#N)c32)nc2c1n(C)c(=O)n2[C@@H]1CCOC1 [I-23]  25 nM
5. C[C@H](Oc1nc(-c2onc3c2CCC[C@@]32CCCc3sc(N)c(C#N)c32)nc2c1n(C)c(=O)n2[C@@H]1CCOC1)C12CCCN1CCC2 [I-25]  26 nM
6. C[C@H](Oc1nc(-c2onc3c2CCC[C@@]32CCCc3sc(N)c(C#N)c32)nc2c1ncn2[C@@H]1CCOC1)[C@@H]1CCCN1C [I-38]  70 nM
7. Cc1cc2c(O[C@@H](C)[C@@H]3CCCN3C)nc(-c3onc4c3CCC[C@@]43CCCc4sc(N)c(C#N)c43)nc2n1[C@@H]1CCOC1 [I-40]  119 nM
8. C[C@H](Oc1nc(-c2onc3c2CCC[C@@]32CCCc3sc(N)c(C#N)c32)nc2c1n(C)c(=O)n2[C@H]1CCCOC1)[C@@H]1CCCN1C [I-11]  315 nM

Molecular target: KRAS (WT)::CRAF protein::protein interaction (Homo sapiens (Human), UniProt P01116)
Test: KRAS TR-FRET assay (KRAS WT::CRAF, GTP)
Type: binding
Settings: not given
Procedure: as §1, §2
KRAS (WT) 1-169, N-terminal 6His-tag, C-terminal avi-tag (Boehringer Ingelheim in house protein prep); final assay concentration 15 nM.
as §3, §4, §5, §6, §7, §8, §9

Chain of KRAS (WT)::CRAF protein::protein interaction (P01116 other isoform, or with tags, fused parts or gaps): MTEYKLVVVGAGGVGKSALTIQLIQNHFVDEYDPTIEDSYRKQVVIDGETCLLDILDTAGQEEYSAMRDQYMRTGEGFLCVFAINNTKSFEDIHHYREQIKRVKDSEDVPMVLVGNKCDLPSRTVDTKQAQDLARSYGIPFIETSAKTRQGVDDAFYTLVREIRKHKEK

In order of falling IC50:
1. C[C@H](Oc1nc(-c2onc3c2CCC[C@@]32CCCc3sc(N)c(C#N)c32)nc2c1n(C)c(=O)n2[C@H]1CCCOC1)[C@@H]1CCCN1C [I-11]  338 nM
2. Cc1cc2c(O[C@@H](C)[C@@H]3CCCN3C)nc(-c3onc4c3CCC[C@@]43CCCc4sc(N)c(C#N)c43)nc2n1[C@@H]1CCOC1 [I-40]  233 nM
3. C[C@H](Oc1nc(-c2onc3c2CCC[C@@]32CCCc3sc(N)c(C#N)c32)nc2c1ncn2[C@@H]1CCOC1)[C@@H]1CCCN1C [I-38]  139 nM
4. CO[C@H]1CCN(C)[C@@H]1[C@H](C)Oc1nc(-c2onc3c2CCC[C@@]32CCCc3sc(N)c(C#N)c32)nc2c1n(C)c(=O)n2[C@@H]1CCOC1 [I-23]  59 nM
5. C[C@H](Oc1nc(-c2onc3c2CCC[C@@]32CCCc3sc(N)c(C#N)c32)nc2c1n(C)c(=O)n2[C@@H]1CCOC1)C12CCCN1CCC2 [I-25]  53 nM
6. C[C@H](Oc1nc(-c2noc3c2CCC[C@@]32CCCc3sc(N)c(C#N)c32)nc2c1n(C)c(=O)n2[C@@H]1CCOC1)[C@@H]1CCCN1C [II-2]  52 nM
7. C[C@H](Oc1nc(-c2onc3c2CCC[C@@]32CCCc3sc(N)c(C#N)c32)nc2c1n(C)c(=O)n2[C@@H]1CCOC1)[C@@H]1CC[C@H](C)N1C [I-26]  50 nM
8. C[C@H](Oc1nc(-c2noc3c2CCC[C@@]32CCCc3sc(N)c(C#N)c32)nc2c1CNC[C@]21CCOC1)[C@@H]1CCCN1C [II-15]  40 nM

System: Ba/F3 cells KRAS G12D
Test: Ba/F3 proliferation assay (KRAS G12D)
Type: cell-based
Settings: Mus musculus, BaF3, 72 h, AlamarBlue viability
Procedure: Ba/F3 cells are ordered from DSMZ (ACC300, Lot17) and grown in RPMI-1640 (ATCC 30-2001)+10% FCS+10 ng/mL IL-3 at 37° C. in 5% […] atmosphere. Plasmids containing KRASG12 mutants (i.e. […], G12C, G12V) are obtained from GeneScript. To generate KRASG12-dependent Ba/F3 models, Ba/F3 cells are transduced with retroviruses containing vectors that harbor KRASG12 isoforms. Platinum-E cells (Cell Biolabs) are used for retrovirus packaging. Retrovirus is added to Ba/F3 cells. To ensure infection, 4 μg/mL polybrene is added and cells are spinfected. Infection efficiency is confirmed by measuring GFP-positive cells using a cell analyzer. Cells with an infection efficiency of 10% to 20% are further cultivated and puromycin selection with 1 μg/mL is initiated. As a control, parental Ba/F3 cells are used to show selection status. Selection is considered successful when parental Ba/F3 cells cultures died. To evaluate the transforming potential of KRASG12 mutations, the growth medium is no longer supplemented with IL-3. Ba/F3 cells harboring the empty vector are used as a control. Approximately ten days before conducting the experiments, puromycin is left out.
For proliferation assays, Ba/F3 cells are seeded into 384-well plates at 1.5×1 (M cells/60 μL in growth media (RPMI-1640+10% FCS). Compounds (10 mM stock in DMSO) are added at logarithmic dose series using the ECHO acoustic liquid handler system (Beckman Coulter), normalizing for added DMSO and including DMSO controls. All compound treatments are performed in technical duplicates. For the TO time point measurement, untreated cells are analyzed at the time of compound addition. Treated cells are incubated for 72 h at 37° C. with 5% CO2 and cell viability is measured in the PerkinElmer Envision Multimode Reader using AlamarBlue™ (ThermoFisher) viability stain. Viability (stated as percent of control) is defined as relative fluorescence units RFU of each well divided by the RFU of cells in DMSO controls. IC50 values are determined from viability measurements by non-linear regression using a four-parameter model.

In order of rising IC50:
1. C[C@H](Oc1nc(-c2onc3c2CCC[C@@]32CCCc3sc(N)c(C#N)c32)nc2c1n(C)c(=O)n2[C@@H]1CCOC1)[C@@H]1CC[C@H](C)N1C [I-26]  5 nM
2. C[C@H](Oc1nc(-c2noc3c2CCC[C@@]32CCCc3sc(N)c(C#N)c32)nc2c1CNC[C@]21CCOC1)[C@@H]1CCCN1C [II-15]  8 nM
3. C[C@H](Oc1nc(-c2noc3c2CCC[C@@]32CCCc3sc(N)c(C#N)c32)nc2c1n(C)c(=O)n2[C@@H]1CCOC1)[C@@H]1CCCN1C [II-2]  9 nM
4. CO[C@H]1CCN(C)[C@@H]1[C@H](C)Oc1nc(-c2onc3c2CCC[C@@]32CCCc3sc(N)c(C#N)c32)nc2c1n(C)c(=O)n2[C@@H]1CCOC1 [I-23]  10 nM
5. C[C@H](Oc1nc(-c2onc3c2CCC[C@@]32CCCc3sc(N)c(C#N)c32)nc2c1n(C)c(=O)n2[C@@H]1CCOC1)C12CCCN1CCC2 [I-25]  25 nM
6. C[C@H](Oc1nc(-c2onc3c2CCC[C@@]32CCCc3sc(N)c(C#N)c32)nc2c1ncn2[C@@H]1CCOC1)[C@@H]1CCCN1C [I-38]  28 nM
7. Cc1cc2c(O[C@@H](C)[C@@H]3CCCN3C)nc(-c3onc4c3CCC[C@@]43CCCc4sc(N)c(C#N)c43)nc2n1[C@@H]1CCOC1 [I-40]  28 nM
8. C[C@H](Oc1nc(-c2onc3c2CCC[C@@]32CCCc3sc(N)c(C#N)c32)nc2c1n(C)c(=O)n2[C@H]1CCCOC1)[C@@H]1CCCN1C [I-11]  344 nM
